Data on nine molecules can be found in patent publication US20240148821A1, “PHARMACEUTICAL USE OF CYCLIC PEPTIDE COMPOUND” (CHUGAI SEIYAKU KABUSHIKI KAISHA, priority 2021, published 2024).

Bridge positions count the residues as written; N and C are the ends. Square brackets hold non-standard residues; d marks the D form. Peptide text beside a SMILES is read from it. * marks the point of attachment. hPhe(3,5-F2-4-CF3) = N[C@@H](CCc1cc(F)c(C(F)(F)F)c(F)c1)C(=O)O; hPhe(3-Cl-4-CF3) = N[C@@H](CCc1ccc(C(F)(F)F)c(Cl)c1)C(=O)O; hPhe(3-F,4-CF3) = N[C@@H](CCc1ccc(C(F)(F)F)c(F)c1)C(=O)O; NMePhe(4-CF3) = CN[C@@H](Cc1ccc(C(F)(F)F)cc1)C(=O)O; Phe(3-CF3) = N[C@@H](Cc1cccc(C(F)(F)F)c1)C(=O)O; NMeAbu(4,4,4-F3) = CN[C@@H](CC(F)(F)F)C(=O)O; NMePhe(4-Me) = CN[C@@H](Cc1ccc(C)cc1)C(=O)O; hPhe(3-Cl) = N[C@@H](CCc1cccc(Cl)c1)C(=O)O; NMePhe(2-F) = CN[C@@H](Cc1ccccc1F)C(=O)O; NMeGly(cPent) = CN[C@H](C(=O)O)C1CCCC1; Phe(3-I) = N[C@@H](Cc1cccc(I)c1)C(=O)O; Pro(4,4-F2) = O=C(O)[C@@H]1CC(F)(F)CN1; NMeCha = CN[C@@H](CC1CCCCC1)C(=O)O; NMeGly(cPr) = CN[C@H](C(=O)O)C1CC1; NMehLeu = CN[C@@H](CCC(C)C)C(=O)O; NMeChg = CN[C@H](C(=O)O)C1CCCCC1; NMeD = CN[C@@H](CC(=O)O)C(=O)O; NMeL = CN[C@@H](CC(C)C)C(=O)O; NMeV = CN[C@H](C(=O)O)C(C)C; d(β3hA) = C[C@@H](N)CC(=O)O; NMeS = CN[C@@H](CO)C(=O)O; dNMeS = CN[C@H](CO)C(=O)O; Morpholide = C1CN(*)CCO1; NMeA = CN[C@@H](C)C(=O)O; NMeAib = CNC(C)(C)C(=O)O; Piperidide = C1CCN(*)CC1; Ac5c = NC1(C(=O)O)CCCC1; Aze = O=C(O)[C@@H]1CCN1; Isopentyl = CC(C)CC*; NEtG = CCNCC(=O)O; Sar = CNCC(=O)O; Propyl = CCC*

The subject of this test is Human pancreatic cancer cell line AsPC-1 (G12D mutation Kras). Kind of test: AsPC-1 cell growth inhibition (AsPC-1 CGI). The following applies: read-out: AsPC-1 cell growth inhibition, 50% growth inhibitory concentration (IC50 value); 96 hours, CellTiter-Glo, values classified in ranges. Type of test: cell-based. In general terms: In ATP-based viability assays light output follows the ATP content of the culture.
Description: Test compounds were serially dilated with dimethyl sulfoxide, and 200 nL was then dispensed to a U-bottom 96-well plate using Labcyte Echo. […] The cell suspension was dispensed to a. plate containing a test compound at 100 μL per well and incubated at 37° C. in a 5% carbon dioxide gas incubator. 96 hours later, 80 μL of CellTiter-Glo (Promega) was added to each well and fluorescence was measured.
As to `CCCOC[C@H]1C(=O)N(C)CC(=O)N[C@@H](CCc2ccc(C(F)(F)F)c(F)c2)C(=O)N2CCC[C@H]2C(=O)NC2(CCCC2)C(=O)N(C)[C@@H](C2CCCC2)C(=O)N(C)[C@H](C(=O)N2CCOCC2)CC(=O)N(C)[C@@H](CC(C)C)C(=O)N[C@@H]([C@@H](C)CC)C(=O)N(C)[C@@H](C)C(=O)N2CC[C@H]2C(=O)N1C` [Compound 9] ([NMeL]I[NMeA][Aze][NMeS](Propyl)[Sar][hPhe(3-F,4-CF3)]P[Ac5c][NMeGly(cPent)][NMeD]-Morpholide; lactam N-11), the IC50 is not above 20 nM.

In the case of `CC[C@H](C)[C@@H]1NC(=O)[C@H](CC(C)C)N(C)C(=O)C[C@@H](C)NC(=O)[C@H](CCC(C)C)N(C)C(=O)C2(CCCC2)NC(=O)[C@@H]2CCCN2C(=O)[C@H](CCc2ccc(C(F)(F)F)c(Cl)c2)NC(=O)CN(C)C(=O)[C@H](CC2CCCCC2)N(C)C(=O)CN(C)C(=O)CN(C)C1=O` [Compound 586] (cyclo([Ac5c][NMehLeu][d(β3hA)][NMeL]I[Sar][Sar][NMeCha][Sar][hPhe(3-Cl-4-CF3)]P)), the IC50 was more than 500 nM.

As for `CC[C@H](C)[C@@H]1NC(=O)[C@H](CC(C)C)N(C)C(=O)C[C@@H](C)NC(=O)[C@H](C(C)C)N(C)C(=O)C2(CCCC2)NC(=O)[C@@H]2CCCN2C(=O)[C@H](CCc2ccc(C(F)(F)F)c(Cl)c2)NC(=O)CN(C)C(=O)[C@H](CC2CCCCC2)N(C)C(=O)CN(CC)C(=O)CN(C)C1=O` [Compound 504] (cyclo([Ac5c][NMeV][d(β3hA)][NMeL]I[Sar][NEtG][NMeCha][Sar][hPhe(3-Cl-4-CF3)]P)), the IC50 is more than 500 nM.

Regarding `CC[C@H](C)[C@@H]1NC(=O)[C@H](CC(C)C)N(C)C(=O)C[C@@H](C(=O)N(C)C)N(C)C(=O)[C@H](C2CCCC2)N(C)C(=O)C2(CCCC2)NC(=O)[C@H](Cc2ccccc2F)N(C)C(=O)[C@H](CCc2ccc(C(F)(F)F)c(Cl)c2)NC(=O)CN(C)C(=O)[C@H](CC2CCCCC2)N(C)C(=O)[C@@H]2CCN2C(=O)[C@H](C)N(C)C1=O` [Compound 43] ([NMeL]I[NMeA][Aze][NMeCha][Sar][hPhe(3-Cl-4-CF3)][NMePhe(2-F)][Ac5c][NMeGly(cPent)][NMeD]-NMe2; lactam N-11), the IC50 was more than 500 nM.

In the case of `CC[C@H](C)[C@@H]1NC(=O)[C@H](C)N(C)C(=O)C[C@@H](C(=O)N2CCCCC2)N(C)C(=O)[C@H](C2CCCCC2)N(C)C(=O)C2(CCCC2)NC(=O)[C@@H]2CCCN2C(=O)[C@H](CCc2cccc(Cl)c2)NC(=O)CN(C)C(=O)[C@H](CC2CCCCC2)N(C)C(=O)CN(C)C(=O)CN(C)C1=O` [Compound 954] ([NMeA]I[Sar][Sar][NMeCha][Sar][hPhe(3-Cl)]P[Ac5c][NMeChg][NMeD]-Piperidide; lactam N-11), the IC50 is more than 500 nM.

For the molecule `CC[C@H](C)[C@@H]1NC(=O)[C@H](CC(C)C)N(C)C(=O)C[C@@H](C(=O)N2CCCCC2)N(C)C(=O)[C@H](C2CCCC2)N(C)C(=O)C2(CCCC2)NC(=O)[C@@H](COCCC(C)C)N(C)C(=O)[C@H](CCc2ccc(C(F)(F)F)c(Cl)c2)NC(=O)CN(C)C(=O)[C@H](CC2CCCCC2)N(C)C(=O)CN(C)C(=O)CN(C)C1=O` [Compound 1440] ([NMeL]I[Sar][Sar][NMeCha][Sar][hPhe(3-Cl-4-CF3)][dNMeS](Isopentyl)[Ac5c][NMeGly(cPent)][NMeD]-Piperidide; lactam N-11), the IC50 was more than 500 nM.

Regarding `CC[C@H](C)[C@@H]1NC(=O)[C@H](CC(C)C)N(C)C(=O)C[C@@H](C(=O)N2CCCCC2)N(C)C(=O)[C@H](CC(C)C)NC(=O)C(C)(C)N(C)C(=O)[C@H](Cc2cccc(C(F)(F)F)c2)NC(=O)[C@H](Cc2cccc(I)c2)NC(=O)CN(C)C(=O)[C@H](Cc2ccc(C)cc2)N(C)C(=O)CN(C)C(=O)CN(C)C1=O` [Compound 376] ([NMeL]I[Sar][Sar][NMePhe(4-Me)][Sar][Phe(3-I)][Phe(3-CF3)][NMeAib]L[NMeD]-Piperidide; lactam N-11), the IC50 was more than 500 nM.

Regarding `CC[C@H](C)[C@@H]1NC(=O)[C@H](C2CC2)N(C)C(=O)C[C@@H](C)NC(=O)[C@H](C(C)C)N(C)C(=O)C2(CCCC2)NC(=O)[C@@H]2CCCN2C(=O)[C@H](CCc2ccc(C(F)(F)F)c(Cl)c2)NC(=O)CN(C)C(=O)[C@H](CC2CCCCC2)N(C)C(=O)[C@@H]2CCN2C(=O)[C@H](C)N(C)C1=O` [Compound 565] (cyclo([Ac5c][NMeV][d(β3hA)][NMeGly(cPr)]I[NMeA][Aze][NMeCha][Sar][hPhe(3-Cl-4-CF3)]P)), the IC50 is more than 500 nM.

On to `CC[C@H](C)[C@@H]1NC(=O)[C@H](CC(F)(F)F)N(C)C(=O)C[C@@H](C(=O)N2CCOCC2)N(C)C(=O)[C@H](C2CCCCC2)N(C)C(=O)C2(CCCC2)NC(=O)[C@@H]2CC(F)(F)CN2C(=O)[C@H](CCc2cc(F)c(C(F)(F)F)c(F)c2)NC(=O)CN(C)C(=O)[C@H](Cc2ccc(C(F)(F)F)cc2)N(C)C(=O)CN(C)C(=O)CN(C)C1=O` [Compound 1260] ([NMeAbu(4,4,4-F3)]I[Sar][Sar][NMePhe(4-CF3)][Sar][hPhe(3,5-F2-4-CF3)][Pro(4,4-F2)][Ac5c][NMeChg][NMeD]-Morpholide; lactam N-11), for which the IC50 was not above 20 nM.
